{"source": "ChEMBL document CHEMBL4321854", "about": "“Discovery of a First-in-Class Mitogen-Activated Protein Kinase Kinase 1/2 Degrader” (J Med Chem, 2019)", "key": {"[1]": {"experiment": "Ratio of Plasma concentration in Swiss albino mouse at 50 mg/kg, ip measured after 8 hrs to GI50 for antiproliferative activity against human UACC257 cells", "format": "organism-based", "details": "in vivo"}, "COLO 205": {"tested_on": "COLO 205", "experiment": "Effect on total ERK protein expression in human COLO205 cells at 0.001 to 5 uM after 24 hrs by Western blot analysis", "format": "functional, cell-based"}, "[2]": {"biological_target": "T1, von Hippel-Lindau disease tumor suppressor/Dual specificity mitogen-activated protein kinase kinase 2/Dual specificity mitogen-activated protein kinase kinase 1 (Homo sapiens) (UniProt P36507+Q02750+P40337)", "T1 sequence (P36507 whole entry, looked up)": "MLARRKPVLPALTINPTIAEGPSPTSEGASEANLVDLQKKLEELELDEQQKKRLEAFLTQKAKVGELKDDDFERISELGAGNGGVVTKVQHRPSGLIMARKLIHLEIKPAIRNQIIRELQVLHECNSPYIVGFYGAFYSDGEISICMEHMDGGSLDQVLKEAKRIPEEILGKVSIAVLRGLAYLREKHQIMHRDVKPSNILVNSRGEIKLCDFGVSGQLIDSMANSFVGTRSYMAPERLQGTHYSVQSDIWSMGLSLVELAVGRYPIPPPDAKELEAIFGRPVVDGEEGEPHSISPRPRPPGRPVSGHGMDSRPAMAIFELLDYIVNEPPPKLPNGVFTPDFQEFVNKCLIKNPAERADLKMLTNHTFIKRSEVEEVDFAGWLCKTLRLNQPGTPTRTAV", "T1 sequence (P40337 whole entry, looked up)": "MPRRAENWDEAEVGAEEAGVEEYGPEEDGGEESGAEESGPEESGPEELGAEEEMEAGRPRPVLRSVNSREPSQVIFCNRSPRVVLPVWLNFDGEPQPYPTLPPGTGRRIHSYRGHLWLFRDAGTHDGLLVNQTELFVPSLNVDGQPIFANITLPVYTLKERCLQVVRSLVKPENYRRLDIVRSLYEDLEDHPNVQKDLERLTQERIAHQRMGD", "T1 sequence (Q02750 whole entry, looked up)": "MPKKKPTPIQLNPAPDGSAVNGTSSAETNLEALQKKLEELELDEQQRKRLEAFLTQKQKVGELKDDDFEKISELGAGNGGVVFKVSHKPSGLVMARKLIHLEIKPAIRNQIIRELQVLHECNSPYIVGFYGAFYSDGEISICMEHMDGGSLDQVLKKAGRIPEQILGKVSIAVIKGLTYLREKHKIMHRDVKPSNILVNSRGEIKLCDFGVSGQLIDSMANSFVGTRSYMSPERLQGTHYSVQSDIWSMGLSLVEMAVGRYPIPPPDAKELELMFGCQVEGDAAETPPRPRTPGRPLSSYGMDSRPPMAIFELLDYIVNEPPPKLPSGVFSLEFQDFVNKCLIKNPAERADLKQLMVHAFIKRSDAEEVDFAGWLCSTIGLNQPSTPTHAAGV", "experiment": "Protac activity against VHL/MEK1/2 in human SK-MEL-28 cells harboring with BRAF V600E variant assessed as reduction in phosphorylation of MEK at S218/222 residues after 24 hrs by Western blot analysis", "format": "cell-based"}, "[3]": {"biological_target": "T2, von Hippel-Lindau disease tumor suppressor/Dual specificity mitogen-activated protein kinase kinase 2 (Homo sapiens) (UniProt P36507+P40337)", "T2 sequence (P36507 whole entry, looked up)": "as the sequence (P36507 whole entry, looked up) above", "T2 sequence (P40337 whole entry, looked up)": "as the sequence (P40337 whole entry, looked up) above", "experiment": "Protac activity against VHL/MEK2 in human HT-29 cells harboring with BRAF V600E variant assessed as degradation of MEK2 by measuring MEK2 protein level at 0.3 uM pretreated with proteasome inhibitor, MG-132 for 2 hrs followed by incubation with compound for 10 hrs by Western blot analysis", "format": "cell-based"}, "[4]": {"biological_target": "Dual specificity mitogen-activated protein kinase kinase 2 (Homo sapiens, UniProt P36507)", "sequence (P36507 whole entry)": "as the sequence (P36507 whole entry, looked up) above", "experiment": "Inhibition of recombinant full length human His-tagged MEK2 expressed in baculovirus expression system using ERK K52R dead variant as substrate preincubated for 20 mins followed by incubation with 33P-ATP for 2 hrs by hotspot kinase assay"}, "[5]": {"biological_target": "T2, von Hippel-Lindau disease tumor suppressor/Dual specificity mitogen-activated protein kinase kinase 2 (Homo sapiens)", "experiment": "Protac activity against VHL/MEK2 in human HT-29 cells harboring with BRAF V600E variant assessed as degradation of MEK2 at 3 to 5 uM after 24 hrs by Western blot analysis", "format": "cell-based"}, "SK-MEL-28 [6]": {"tested_on": "SK-MEL-28", "experiment": "Antiproliferative activity against human SK-MEL-28 cells assessed as reduction in cell growth after 3 days by MTT assay", "format": "functional"}, "[7]": {"biological_target": "T3, von Hippel-Lindau disease tumor suppressor/Dual specificity mitogen-activated protein kinase kinase 1 (Homo sapiens) (UniProt Q02750+P40337)", "T3 sequence (P40337 whole entry, looked up)": "as the sequence (P40337 whole entry, looked up) above", "T3 sequence (Q02750 whole entry, looked up)": "as the sequence (Q02750 whole entry, looked up) above", "experiment": "Protac activity against VHL/MEK1 in human SK-MEL-28 cells harboring with BRAF V600E variant assessed as degradation of MEK1 by measuring reduction in MEK1 protein level at 0.3 uM after 8 hrs by Western blot analysis relative to control", "format": "cell-based", "design": "scale not given: the % may be the effect or the level left"}, "[8]": {"biological_target": "T2, von Hippel-Lindau disease tumor suppressor/Dual specificity mitogen-activated protein kinase kinase 2 (Homo sapiens)", "experiment": "Protac activity against VHL/MEK2 in human SK-MEL-28 cells harboring with BRAF V600E variant assessed as degradation of MEK2 by measuring reduction in MEK2 protein level at 0.3 uM after 24 hrs by Western blot analysis relative to control", "format": "cell-based", "design": "scale not given: the % may be the effect or the level left"}, "[9]": {"biological_target": "von Hippel-Lindau disease tumor suppressor/Leukocyte receptor cluster member 8 (Homo sapiens) (UniProt P40337+Q96PV6)", "sequence (P40337 whole entry, looked up)": "as the sequence (P40337 whole entry, looked up) above", "sequence (Q96PV6 whole entry, looked up)": "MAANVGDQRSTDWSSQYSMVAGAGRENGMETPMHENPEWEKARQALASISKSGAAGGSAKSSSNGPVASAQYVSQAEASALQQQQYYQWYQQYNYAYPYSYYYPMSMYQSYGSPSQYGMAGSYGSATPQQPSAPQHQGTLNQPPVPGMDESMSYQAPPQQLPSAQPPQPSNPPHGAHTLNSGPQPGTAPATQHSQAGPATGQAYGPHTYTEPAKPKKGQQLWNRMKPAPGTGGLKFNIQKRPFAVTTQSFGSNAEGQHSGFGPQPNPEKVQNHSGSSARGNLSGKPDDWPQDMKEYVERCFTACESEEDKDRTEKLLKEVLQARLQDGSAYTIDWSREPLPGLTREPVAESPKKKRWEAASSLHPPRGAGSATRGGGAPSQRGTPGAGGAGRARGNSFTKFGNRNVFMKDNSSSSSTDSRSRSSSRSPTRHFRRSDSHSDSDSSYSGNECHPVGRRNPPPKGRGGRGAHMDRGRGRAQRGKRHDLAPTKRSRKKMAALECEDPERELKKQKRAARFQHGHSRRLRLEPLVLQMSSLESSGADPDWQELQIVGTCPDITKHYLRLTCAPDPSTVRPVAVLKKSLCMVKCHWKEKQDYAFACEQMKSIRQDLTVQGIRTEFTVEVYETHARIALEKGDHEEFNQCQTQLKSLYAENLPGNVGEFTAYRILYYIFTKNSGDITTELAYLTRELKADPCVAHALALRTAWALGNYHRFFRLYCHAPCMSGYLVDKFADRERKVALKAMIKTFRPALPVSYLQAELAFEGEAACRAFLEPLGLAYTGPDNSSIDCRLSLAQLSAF", "experiment": "Protac activity against VHL/LENG8 in human HT-29 cells harboring with BRAF V600E variant assessed as LENG8 protein level at 0.1 uM after 10 hrs by Western blot analysis", "format": "cell-based"}, "[10]": {"biological_target": "T3, von Hippel-Lindau disease tumor suppressor/Dual specificity mitogen-activated protein kinase kinase 1 (Homo sapiens)", "experiment": "Protac activity against VHL/MEK1 in human SK-MEL-28 cells harboring with BRAF V600E variant assessed as degradation of MEK1 at 3 to 5 uM after 24 hrs by Western blot analysis", "format": "cell-based"}, "[11]": {"biological_target": "T3, von Hippel-Lindau disease tumor suppressor/Dual specificity mitogen-activated protein kinase kinase 1 (Homo sapiens)", "experiment": "Protac activity against VHL/MEK1 in human HT-29 cells harboring with BRAF V600E variant assessed as degradation of MEK1 by measuring reduction in MEK1 protein level at 0.3 uM after 8 hrs by Western blot analysis relative to control", "format": "cell-based", "design": "scale not given: the % may be the effect or the level left"}, "[12]": {"biological_target": "T1, von Hippel-Lindau disease tumor suppressor/Dual specificity mitogen-activated protein kinase kinase 2/Dual specificity mitogen-activated protein kinase kinase 1 (Homo sapiens)", "experiment": "Protac activity against VHL/MEK1/2 in human HT-29 cells harboring with BRAF V600E variant assessed as phosphorylation of ERK at T202/Y204 residues at 0.3 uM pretreated with VHL ligand, VH 032 for 2 hrs followed by incubation with compound for 10 hrs by Western blot analysis", "format": "cell-based"}, "[13]": {"biological_target": "T1, von Hippel-Lindau disease tumor suppressor/Dual specificity mitogen-activated protein kinase kinase 2/Dual specificity mitogen-activated protein kinase kinase 1 (Homo sapiens)", "experiment": "Protac activity against VHL/MEK1/2 in human SK-MEL-28 cells harboring with BRAF V600E variant assessed as phosphorylation of ERK at T202/Y204 residues at 0.3 uM pretreated with VHL ligand, VH 032 for 2 hrs followed by incubation with compound for 10 hrs by Western blot analysis", "format": "cell-based"}, "[14]": {"biological_target": "T1, von Hippel-Lindau disease tumor suppressor/Dual specificity mitogen-activated protein kinase kinase 2/Dual specificity mitogen-activated protein kinase kinase 1 (Homo sapiens)", "experiment": "Protac activity against VHL/MEK1/2 in human UACC257 cells harboring with BRAF V600E variant assessed as reduction in phosphorylation of MEK at S218/222 residues after 24 hrs by Western blot analysis", "format": "cell-based"}, "[15]": {"biological_target": "T3, von Hippel-Lindau disease tumor suppressor/Dual specificity mitogen-activated protein kinase kinase 1 (Homo sapiens)", "experiment": "(§1) Protac activity against VHL/MEK1 in human HT-29 cells harboring BRAF V600E variant assessed as degradation of MEK1 after 24 hrs by Western blot analysis", "format": "cell-based"}, "[16]": {"biological_target": "von Hippel-Lindau disease tumor suppressor/Dual specificity mitogen-activated protein kinase kinase 1 (Homo sapiens, UniProt Q02750+P40337, V600E)", "sequence (P40337 whole entry, looked up, stated change not applied)": "as the sequence (P40337 whole entry, looked up) above", "sequence (Q02750 whole entry, looked up, stated change not applied)": "as the sequence (Q02750 whole entry, looked up) above", "experiment": "as §1", "format": "cell-based"}, "[17]": {"biological_target": "T3, von Hippel-Lindau disease tumor suppressor/Dual specificity mitogen-activated protein kinase kinase 1 (Homo sapiens)", "experiment": "Protac activity against VHL/MEK1 in human SK-MEL-28 cells harboring with BRAF V600E variant assessed as degradation of MEK1 by measuring reduction in MEK1 protein level at 0.3 uM after 24 hrs by Western blot analysis relative to control", "format": "cell-based", "design": "scale not given: the % may be the effect or the level left"}, "[18]": {"biological_target": "T2, von Hippel-Lindau disease tumor suppressor/Dual specificity mitogen-activated protein kinase kinase 2 (Homo sapiens)", "experiment": "Protac activity against VHL/MEK2 in human SK-MEL-28 cells harboring with BRAF V600E variant assessed as degradation of MEK2 by measuring MEK2 protein level at 0.3 uM pretreated with MEK1/2 inhibitor, PD0325901 for 2 hrs followed by incubation with compound for 10 hrs by Western blot analysis", "format": "cell-based"}, "SK-MEL-28 [19]": {"tested_on": "SK-MEL-28", "experiment": "Inhibition of colony formation in human SK-MEL-28 cells at 10 to 100 nM supplemented with fresh medium containing compound every 3 days for 14 days by crystal violet staining based assay", "format": "functional, cell-based"}, "[20]": {"biological_target": "von Hippel-Lindau disease tumor suppressor/Cullin-9 (Homo sapiens) (UniProt P40337+Q8IWT3)", "experiment": "Protac activity against VHL/cullin9 in human HT-29 cells harboring with BRAF V600E variant assessed as cullin9 protein level at 0.1 uM after 10 hrs by Western blot analysis", "format": "cell-based"}, "[21]": {"biological_target": "T1, von Hippel-Lindau disease tumor suppressor/Dual specificity mitogen-activated protein kinase kinase 2/Dual specificity mitogen-activated protein kinase kinase 1 (Homo sapiens)", "experiment": "Protac activity against VHL/MEK1/2 in human COLO205 cells harboring with BRAF V600E variant assessed as reduction in phosphorylation of MEK at S218/222 residues after 24 hrs by Western blot analysis", "format": "cell-based"}, "[22]": {"biological_target": "T1, von Hippel-Lindau disease tumor suppressor/Dual specificity mitogen-activated protein kinase kinase 2/Dual specificity mitogen-activated protein kinase kinase 1 (Homo sapiens)", "experiment": "Protac activity against VHL/MEK1/2 in human HT-29 cells harboring with BRAF V600E variant assessed as phosphorylation of MEK at S218/222 residues at 0.3 uM pretreated with VHL ligand, VH 032 for 2 hrs followed by incubation with compound for 10 hrs by Western blot analysis", "format": "cell-based"}, "[23]": {"experiment": "Toxicity in Swiss albino mouse assessed as effect on adverse events at 50 mg/kg, ip", "format": "organism-based", "details": "in vivo"}, "UACC-257": {"tested_on": "UACC-257", "experiment": "Antiproliferative activity against human UACC257 cells assessed as reduction in cell growth after 3 days by MTT assay", "format": "functional"}, "[24]": {"biological_target": "T2, von Hippel-Lindau disease tumor suppressor/Dual specificity mitogen-activated protein kinase kinase 2 (Homo sapiens)", "experiment": "Protac activity against VHL/MEK2 in human SK-MEL-28 cells harboring with BRAF V600E variant assessed as degradation of MEK2 at 0.1 to 0.3 uM after 4 hrs by Western blot analysis", "format": "cell-based"}, "[25]": {"biological_target": "T2, von Hippel-Lindau disease tumor suppressor/Dual specificity mitogen-activated protein kinase kinase 2 (Homo sapiens)", "experiment": "Protac activity against VHL/MEK2 in human COLO205 cells harboring with BRAF V600E variant assessed as degradation of MEK2 at 3 to 5 uM after 24 hrs by Western blot analysis", "format": "cell-based"}}, "note": "Active and inactive are the calls of the source. No cut-off for these calls is given here.", "data": [{"smiles": "Cc1ncsc1-c1ccc([C@H](C)NC(=O)[C@@H]2C[C@@H](O)CN2C(=O)[C@@H](NC(=O)CCCCCCCCCCNCCCONC(=O)c2ccc(F)c(F)c2Nc2ccc(I)cc2F)C(C)(C)C)cc1", "values": [{"measurement": "Ratio", "setting": "[1]", "value": "3 to 20"}, {"measurement": "Activity", "setting": "COLO 205", "value": "inactive"}, {"measurement": "Activity", "setting": "[2]", "value": "Dose-dependent effect"}, {"measurement": "Activity", "setting": "[3]", "value": "inactive"}, {"measurement": "IC50", "setting": "[4]", "value": 590, "unit": "nM"}, {"measurement": "Activity", "setting": "[5]", "value": "Active"}, {"measurement": "growth inhibition (GI)", "setting": "SK-MEL-28 [6]", "value": "Dose-dependent effect"}, {"measurement": "GI50", "setting": "SK-MEL-28 [6]; SK-MEL-28, 72 h", "value": 83, "unit": "nM"}, {"measurement": "Activity", "setting": "[7]", "value": "> 80", "unit": "%"}, {"measurement": "Activity", "setting": "[8]", "value": "> 90", "unit": "%"}, {"measurement": "Activity", "setting": "[9]", "value": "inactive"}, {"measurement": "Activity", "setting": "[10]", "value": "Active"}, {"measurement": "Activity", "setting": "[11]", "value": "> 80", "unit": "%"}, {"measurement": "Activity", "setting": "[12]", "value": "inactive"}, {"measurement": "Activity", "setting": "[13]", "value": "inactive"}, {"measurement": "Activity", "setting": "[14]", "value": "Dose-dependent effect"}, {"measurement": "Activity", "setting": "[15]", "value": "Dose-dependent effect"}, {"measurement": "DC50", "setting": "[16]", "value": 31, "unit": "nM"}, {"measurement": "Activity", "setting": "[17]", "value": "> 90", "unit": "%"}, {"measurement": "Activity", "setting": "[18]", "value": "inactive"}, {"measurement": "inhibition", "setting": "SK-MEL-28 [19]", "value": "Active"}, {"measurement": "Activity", "setting": "[20]", "value": "inactive"}, {"measurement": "Activity", "setting": "[21]", "value": "Dose-dependent effect"}, {"measurement": "Activity", "setting": "[22]", "value": "inactive"}, {"measurement": "Activity", "setting": "[23]", "value": "Non-Toxic"}, {"measurement": "growth inhibition (GI)", "setting": "UACC-257", "value": "Dose-dependent effect"}, {"measurement": "GI50", "setting": "UACC-257; UACC-257, 72 h", "value": "30 to 200", "unit": "nM"}, {"measurement": "Activity", "setting": "[24]", "value": "Active"}, {"measurement": "Activity", "setting": "[25]", "value": "Active"}]}]}
